Several values for one entry are separate records, joined by “and”; a condition that tells them apart may be missing. Equal entries are not always repeated. Inconclusive results and toxic doses are left out. No stated cut-off is given here; in the data, active means T/C of 150% or more; inactive means T/C below 125%.
Test system: L1210 leukemia ip in BDF1 mice, survival T/C
Test: NCI In Vivo Anticancer Drug Screen. Data for tumor model L1210 Leukemia (intraperitoneal) in B6D2F1 (BDF1) mice
Conditions: endpoint: mean survival time, higher = longer survival
Summary of the method: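 Tumor cells were implanted, animals were treated, and survival was followed. The result divides the treated measurement by the vehicle-control measurement.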

[1] = dose: 100.0 mg/kg/injection, schedule: Q04DX003 (ip), vehicle: saline
[2] = dose: 200.0 mg/kg/injection, schedule: Q04DX003 (ip), vehicle: saline
[3] = dose: 100.0 mg/kg/injection, schedule: Q01DX009 (ip), vehicle: saline
[4] = dose: 200.0 mg/kg/injection, schedule: Q01DX009 (ip), vehicle: saline
[5] = dose: 400.0 mg/kg/injection, schedule: Q04DX003 (ip), vehicle: saline
[6] = dose: 100.0 mg/kg/injection, schedule: Q01DX001 (ip), vehicle: saline
[7] = dose: 100.0 mg/kg/injection, schedule: Q04DX003 (ip), vehicle: saline with Tween-80
[8] = dose: 100.0 mg/kg/injection, schedule: Q01DX001 (ip), vehicle: carboxymethylcellulose (CMC)
[9] = dose: 200.0 mg/kg/injection, schedule: Q01DX001 (ip), vehicle: carboxymethylcellulose (CMC)
[10] = dose: 400.0 mg/kg/injection, schedule: Q01DX001 (ip), vehicle: carboxymethylcellulose (CMC)
[11] = dose: 75.0 mg/kg/injection, schedule: Q01DX001 (ip), vehicle: carboxymethylcellulose (CMC)
[12] = dose: 150.0 mg/kg/injection, schedule: Q01DX001 (ip), vehicle: carboxymethylcellulose (CMC)
[13] = dose: 6.25 mg/kg/injection, schedule: Q01DX009 (ip), vehicle: saline with Tween-80
[14] = dose: 12.5 mg/kg/injection, schedule: Q01DX009 (ip), vehicle: saline with Tween-80
[15] = dose: 25.0 mg/kg/injection, schedule: Q04DX003 (ip), vehicle: saline with Tween-80
[16] = dose: 50.0 mg/kg/injection, schedule: Q04DX003 (ip), vehicle: saline with Tween-80
[17] = dose: 200.0 mg/kg/injection, schedule: Q01DX001 (ip), vehicle: saline
[18] = dose: 400.0 mg/kg/injection, schedule: Q01DX001 (ip), vehicle: saline
[19] = dose: 25.0 mg/kg/injection, schedule: Q01DX009 (ip), vehicle: saline with Tween-80
[20] = dose: 50.0 mg/kg/injection, schedule: Q01DX009 (ip), vehicle: saline with Tween-80
[21] = dose: 100.0 mg/kg/injection, schedule: Q01DX009 (ip), vehicle: saline with Tween-80
[22] = dose: 100.0 mg/kg/injection, schedule: Q04DX002 (ip), vehicle: saline
[23] = dose: 200.0 mg/kg/injection, schedule: Q04DX002 (ip), vehicle: saline

Measured: T/C

CCCCNC(=O)OC/C=C/CC(Cl)(Cl)Cl
inactive: dose: 100.0 mg/kg/injection, schedule: Q01DX009 (sc), vehicle: olive oil, sesame oil, peanut oil 103 % of control | dose: 100.0 mg/kg/injection, schedule: Q04DX003 (sc), vehicle: olive oil, sesame oil, peanut oil 95 % of control | dose: 200.0 mg/kg/injection, schedule: Q01DX009 (sc), vehicle: olive oil, sesame oil, peanut oil 101 % of control | dose: 200.0 mg/kg/injection, schedule: Q04DX003 (sc), vehicle: olive oil, sesame oil, peanut oil 108 % of control | dose: 400.0 mg/kg/injection, schedule: Q01DX009 (sc), vehicle: olive oil, sesame oil, peanut oil 101 % of control | dose: 400.0 mg/kg/injection, schedule: Q04DX003 (sc), vehicle: olive oil, sesame oil, peanut oil 94 % of control

C/C(Cc1ccccc1)=N\[N+](C)(C)C
inactive: dose: 75.0 mg/kg/injection, schedule: Q01DX009 (ip), vehicle: saline 107 % of control | [1] 104 % of control | dose: 150.0 mg/kg/injection, schedule: Q01DX009 (ip), vehicle: saline 100 % of control | [2] 86 % of control

C[Si](C)(C)OC/C=C\CO[Si](C)(C)C
inactive: [3] 96 % of control | dose: 100.0 mg/kg/injection, schedule: Q04DX003 (ip), vehicle: alcohol 103 % of control | [4] 94 % of control | dose: 200.0 mg/kg/injection, schedule: Q04DX003 (ip), vehicle: alcohol 101 % of control | dose: 400.0 mg/kg/injection, schedule: Q04DX003 (ip), vehicle: alcohol 96 % of control

COc1ccccc1P(c1ccccc1OC)c1ccccc1OC
inactive: [3] 95 % of control | [1] 113 % of control | [4] 92 % of control | [2] 102 % of control | dose: 400.0 mg/kg/injection, schedule: Q01DX009 (ip), vehicle: saline 98 % of control | [5] 101 % of control

Clc1ccc(CN2CCCN(C3CCCCC3)C2C2CCC=CO2)cc1 (configuration not stated)
inactive: [6] 96 % of control

Cc1ccccc1NC(=O)CS
inactive: [7] 95 % of control | dose: 200.0 mg/kg/injection, schedule: Q04DX003 (ip), vehicle: saline with Tween-80 88 % of control

C=NNC(=O)c1ccc(OC)cc1
inactive: dose: 50.0 mg/kg/injection, schedule: Q01DX001 (ip), vehicle: carboxymethylcellulose (CMC) 96 % of control | [8] 96 % of control | [9] 93 % of control | [10] 93 % of control

COC(=O)/C(=C1\C=C(c2ccccc2)C(=O)O1)c1ccccc1
inactive: dose: 25.0 mg/kg/injection, schedule: Q01DX009 (ip), vehicle: Klucel (hydroxypropylcellulose) (HPC) 98 % of control | dose: 50.0 mg/kg/injection, schedule: Q01DX009 (ip), vehicle: Klucel (hydroxypropylcellulose) (HPC) 103 % of control

CS(=O)(=O)O/C=C1/CCOC1=O
inactive: dose: 12.5 mg/kg/injection, schedule: Q01DX009 (ip), vehicle: water 105 % of control | dose: 25.0 mg/kg/injection, schedule: Q01DX009 (ip), vehicle: water 106 % of control

ClSSc1c2ccccc2cc2ccccc12
inactive: [11] 91 % of control | [12] 92 % of control | dose: 300.0 mg/kg/injection, schedule: Q01DX001 (ip), vehicle: carboxymethylcellulose (CMC) 88 % of control

ClCCN(CCCl)CCCN1c2ccccc2Sc2ccc(Cl)cc21
inactive: dose: 1.56 mg/kg/injection, schedule: Q01DX009 (ip), vehicle: saline with Tween-80 100 % of control | dose: 3.12 mg/kg/injection, schedule: Q01DX001 (ip), vehicle: saline with Tween-80 105 % of control | dose: 3.12 mg/kg/injection, schedule: Q01DX009 (ip), vehicle: saline with Tween-80 112 % of control | dose: 6.25 mg/kg/injection, schedule: Q01DX001 (ip), vehicle: saline with Tween-80 103 % of control | [13] 110 % of control | dose: 6.25 mg/kg/injection, schedule: Q04DX003 (ip), vehicle: saline with Tween-80 102 % of control | dose: 12.5 mg/kg/injection, schedule: Q01DX001 (ip), vehicle: saline with Tween-80 108 % of control | [14] 112 % of control | dose: 12.5 mg/kg/injection, schedule: Q04DX003 (ip), vehicle: saline with Tween-80 107 % of control | [15] 110 % of control | [16] 122 % of control

CCCCOP(=O)(NNC=O)OCCCC
inactive: [1] 96 % of control | [2] 98 % of control | [5] 95 % of control

C[N+](C)(CCNCc1ccccc1)Cc1ccccc1
inactive: [6] 102 % of control | [17] 100 % of control | [18] 100 % of control

Cc1ccc2c(c1)Oc1ccccc1S2
inactive: dose: 100.0 mg/kg/injection, schedule: Q04DX002 (ip), vehicle: saline with Tween-80 96 % of control | dose: 200.0 mg/kg/injection, schedule: Q04DX002 (ip), vehicle: saline with Tween-80 103 % of control | dose: 400.0 mg/kg/injection, schedule: Q04DX002 (ip), vehicle: saline with Tween-80 103 % of control

CNC(=O)C(=O)NCCCN1CC1
inactive: dose: 12.5 mg/kg/injection, schedule: Q04DX003 (ip), vehicle: Klucel (hydroxypropylcellulose) (HPC) 114 % of control | dose: 25.0 mg/kg/injection, schedule: Q04DX003 (ip), vehicle: Klucel (hydroxypropylcellulose) (HPC) 104 % of control

CN(N)C(=O)Nc1ccccc1Cl
inactive: [11] 100 % of control | [12] 107 % of control

CCc1nc2c(OC)ccc(OC)c2nc1C
inactive: dose: 75.0 mg/kg/injection, schedule: Q01DX001 (ip), vehicle: other 96 % of control | dose: 150.0 mg/kg/injection, schedule: Q01DX001 (ip), vehicle: other 96 % of control

Cc1cc2ccccc2oc1=O
inactive: [19] 101 % of control | [15] 98 % of control | [20] 114 % of control | [16] 93 % of control | [21] 107 % of control | [7] 86 % of control

O=[N+]([O-])c1ccc(O)c(Br)c1
inactive: [13] 95 % of control | [14] 101 % of control | dose: 25.0 mg/kg/injection, schedule: Q01DX009 (ip), vehicle: carboxymethylcellulose (CMC) 90 % of control | [19] 93 % of control

Nc1ccc(Cl)nc1
inactive: dose: 50.0 mg/kg/injection, schedule: Q01DX001 (ip), vehicle: saline 98 % of control | [6] 98 % of control | [17] 102 % of control | [18] 96 % of control

COCP(=O)(O)O
inactive: [22] 96 % of control | [23] 100 % of control

O=P(C1CCCCC1)(C1CCCCC1)C1CCCCC1
inactive: dose: 100.0 mg/kg/injection, schedule: Q01DX009 (ip), vehicle: Klucel (hydroxypropylcellulose) (HPC) 89 % of control | dose: 200.0 mg/kg/injection, schedule: Q01DX009 (ip), vehicle: Klucel (hydroxypropylcellulose) (HPC) 97 % of control

COc1cccc(-c2c(C(=O)OC(C)(C)C)cc(O)c3ccc(OC)cc23)c1
inactive: [8] 97 % of control | [9] 96 % of control | [10] 97 % of control

C=C1C(=O)O[C@H]2C[C@@H](C)[C@@H]3CC(=O)OC[C@@]3(C)CC12 (some centres not stated)
inactive: [19] 108 % of control | [15] 99 % of control | [20] 105 % of control | [16] 105 % of control | [21] 101 % of control | [7] 93 % of control and 103 % of control

CCC1(C)CC(=O)N(C/C=C(\C)CCC(=O)O)C(=O)C1
inactive: dose: 100.0 mg/kg/injection, schedule: Q01DX009 (ip), vehicle: other 103 % of control | dose: 100.0 mg/kg/injection, schedule: Q04DX003 (ip), vehicle: other 89 % of control | dose: 200.0 mg/kg/injection, schedule: Q01DX009 (ip), vehicle: other 101 % of control | dose: 200.0 mg/kg/injection, schedule: Q04DX003 (ip), vehicle: other 100 % of control | dose: 400.0 mg/kg/injection, schedule: Q01DX009 (ip), vehicle: other 93 % of control | dose: 400.0 mg/kg/injection, schedule: Q04DX003 (ip), vehicle: other 96 % of control

CC(C)c1ccc(-n2c(=S)[nH]c3ccccc3c2=O)cc1
inactive: [22] 107 % of control | [23] 93 % of control | dose: 400.0 mg/kg/injection, schedule: Q04DX002 (ip), vehicle: saline 104 % of control

Source: PubChem BioAssay AID248 (DTP/NCI, 2004)
